According to US20190247376A1, “NICOTINIC ACETYLCHOLINE RECEPTOR AGONIST ATTENUATES ILC2-DEPENDENT AIRWAY HYPERREACTIVITY” (University of Southern California, priority 2016, published 2019):

System: human ILC2s
Test: In vitro culture of human ILC2s, IL-5 and IL-13 production
Assay type: cell-based
Settings: agonist 10 μg mL−1; rh-IL-2, rh-IL-7, rh-IL-33; 24h
Protocol: FIGS. 7A-7E: α7nAChR agonist prevents human ILC2s mediated AHR and allergic. (FIG. 7A) Human ILC2s were purified from PBMCs via FACS and cultured (10^4 cells per mL) in the presence of recombinant human IL-33 (20 ng mL^−1), IL-2 (10 ng mL^−1), and IL-7 (20 ng mL^−1), with or without α7nAChR agonist for 24h. In the right panel, data are presented as means of four individual donors. (FIG. 7B) Human peripheral-blood mononuclear cells were isolated via FACS and cultured in the presence or absence of rh-IL-2 (10 ng mL^−1) and rh-IL-7 (20 ng mL^−1) for 48 hours, then adoptively transferred into Rag2^−/− GC^−/− mice that were intranasally challenged with rm-IL-33 or PBS, with or without α7nAChR agonist (125 μg) on days 1-3. […]
For human peripheral ILC2s, peripheral blood mononuclear cells (PBMCs) were first isolated from human fresh blood by diluting the blood 1:1 in PBS, adding to SepMate™-50 separation tubes (STEMCELL Technologies Inc, Vancouver, Canada) prefilled with 15-mL Lymphoprep™ each (Axis-Shield, Oslo, Norway), and centrifuging at 1200 g for 15 minutes. […] On day 4, lung function was measured and BAL was performed and analyzed.
Murine ILC2s were isolated from BALB/cByJ mice to >95% purity using the FACSARIA III cell sorter. […] Levels of cytokines were measured by ELISA (eBioscience), according to the manufacturer's instructions.

COc1ccc(/C=C2\CCCN=C2c2cccnc2)c(OC)c1 [GTS-21, 3-[(3E)-3-[(2,4-dimethoxyphenyl)methylidene]-5,6-dihydro-4H-pyridin-2-yl]pyridine]
IL-5 production by human ILC2s: decreasing | IL-13 production by human ILC2s: decreasing
